Test results as given in US20190192697A1, “CHEMICAL PROBES OF LYSYL OXIDASK-LIKE 2 AND USES THEREOF” (PHARMAKEA, INC., priority 2016, published 2019).
Where a name gives a salt, the structure may show the parent alone.

Target: T1, LOXL2 (Homo sapiens, UniProt Q9Y4K0)
T1 sequence (Q9Y4K0 26-774): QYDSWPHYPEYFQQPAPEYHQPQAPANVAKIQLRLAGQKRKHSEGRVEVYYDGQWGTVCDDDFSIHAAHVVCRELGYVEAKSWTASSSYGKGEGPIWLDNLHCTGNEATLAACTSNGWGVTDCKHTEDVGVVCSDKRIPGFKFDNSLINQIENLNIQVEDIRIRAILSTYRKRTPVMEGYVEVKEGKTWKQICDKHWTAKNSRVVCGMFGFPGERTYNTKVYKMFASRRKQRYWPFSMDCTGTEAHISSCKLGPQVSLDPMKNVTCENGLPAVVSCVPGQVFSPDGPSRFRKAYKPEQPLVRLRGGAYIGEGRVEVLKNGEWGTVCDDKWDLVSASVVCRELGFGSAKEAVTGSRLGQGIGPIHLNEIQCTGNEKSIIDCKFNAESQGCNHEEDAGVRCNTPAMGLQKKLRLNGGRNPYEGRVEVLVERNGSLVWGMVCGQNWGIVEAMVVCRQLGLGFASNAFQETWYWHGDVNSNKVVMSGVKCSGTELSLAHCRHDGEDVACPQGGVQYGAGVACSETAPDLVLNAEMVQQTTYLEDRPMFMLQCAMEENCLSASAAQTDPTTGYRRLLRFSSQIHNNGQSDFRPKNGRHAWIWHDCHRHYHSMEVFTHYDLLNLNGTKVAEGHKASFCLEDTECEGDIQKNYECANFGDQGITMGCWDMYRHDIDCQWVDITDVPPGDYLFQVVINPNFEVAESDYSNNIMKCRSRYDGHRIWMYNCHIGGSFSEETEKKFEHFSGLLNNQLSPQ
Test: Human LOXL2 amine oxidase activity assay (Amplex Red)
Format: biochemical
Parameters: expressed in transfected cells; host or cells: CHO cells stably expressing human LOXL2; 10-20x concentrated conditioned media
Settings: concentrated conditioned media from CHO cells expressing human LOXL2; 2 h at 37° C. pre-incubation
Protocol: LOXL2 amine oxidase activity is evaluated by measuring Amplex Red fluorescence using 10-20× concentrated conditioned media from CHO cells stably expressing human LOXL2. To assay for amine oxidase activity, 10 μL of the concentrated conditioned media is incubated with 2 μL of test compound in DMSO and 73 μL Assay Buffer (50 mM Borate Buffer, pH8) for 2 h at 37° C. After the 2 h incubation, 5 μL of 10 mM 1,5-diaminopentane (DAP) diluted in Assay Buffer and 10 μL of Amplex Red Mix (8.5 μL Assay Buffer+0.5 μL of 10 mM Amplex Red+1 μL of 500 U/mL Horseradish Peroxidase) are added and the plate mixed and immediately placed on the FlexStaion for fluorescence measurements. Fluorescence is read in kinetic mode every 2 min for 1 hour at excitation=544 nm and emission=590 nm. The amine oxidase activity is calculated from the slope of the linear portion of the curve.

Row | IC50 [µM] | SMILES
1 | < 0.3 | NCc1cc(Oc2cccc(C(=O)NCCCCCNC(=O)CCCC[C@@H]3SC[C@@H]4NC(=O)N[C@@H]43)c2)nc(C(F)(F)F)c1 [Compound 1-1, 3-((4-(Aminomethyl)-6-(trifluoromethyl)pyridin-2-yl)oxy)-N-(5-(5-((3aS,4S,6aR)-2-oxohexahydro-1H-thieno[3,4-d]imidazol-4-yl)pentanamido)pentyl)benzamide hydrochloride]
2 | < 0.3 | Cl.NCc1cc(Oc2cccc(C(=O)NCCOCCOCCOCCOCCOCCOCCOCCOCCOCCOCCOCCNC(=O)CCCC[C@@H]3SC[C@@H]4NC(=O)N[C@@H]43)c2)nc(C(F)(F)F)c1 [Compound 1-2, 3-((4-(Aminomethyl)-6-(trifluoromethyl)pyridin-2-yl)oxy)-N-(37-oxo-41-((3aS,4S,6aR)-2-oxohexahydro-1H-thieno[3,4-d]imidazol-4-yl)-3,6,9,12,15,18,21,24,27,30,33-undecaoxa-36-azahentetracontyl)benzamide hydrochloride]
3 | < 0.3 | CN1/C(=C/C=C/C2=[N+](CCCCCC(=O)NCCCn3cc(CCCCNC(=O)c4cccc(Oc5cc(CN)cc(C(F)(F)F)n5)c4)nn3)c3ccccc3C2(C)C)C(C)(C)c2ccccc21 [Compound 1-3, 1-(6-((3-(4-(4-(3-((4-(Aminomethyl)-6-(trifluoromethyl)pyridin-2-yl)oxy)benzamido)butyl)-1H-1,2,3-triazol-1-yl)propyl)amino)-6-oxohexyl)-3,3-dimethyl-2-((1E,3E)-3-(1,3,3-trimethylindolin-2-ylidene)prop-1-en-1-yl)-3H-indol-1-ium chloride hydrochloride]
4 | < 0.3 | CN1/C(=C/C=C/C=C/C2=[N+](CCCCCC(=O)NCCCn3cc(CCCCNC(=O)c4cccc(Oc5cc(CN)cc(C(F)(F)F)n5)c4)nn3)c3ccccc3C2(C)C)C(C)(C)c2ccccc21 [Compound 1-4, 1-(6-((3-(4-(4-(3-((4-(Aminomethyl)-6-(trifluoromethyl)pyridin-2-yl)oxy)benzamido)butyl)-1H-1,2,3-triazol-1-yl)propyl)amino)-6-oxohexyl)-3,3-dimethyl-2-((1E,3E,5E)-5-(1,3,3-trimethylindolin-2-ylidene)penta-1,3-dien-1-yl)-3H-indol-1-ium chloride hydrochloride]
5 | < 0.3 | Cc1cc(=O)oc2cc(NC(=O)c3cccc(Oc4cc(CN)cc(C(F)(F)F)n4)c3)ccc12 [Compound 1-5, 3-((4-(Aminomethyl)-6-(trifluoromethyl)pyridin-2-yl)oxy)-N-(4-methyl-2-oxo-2H-chromen-7-yl)benzamide hydrochloride]
6 | 0.3 to 1 | CN(C)c1cccc2c(S(=O)(=O)Nc3cccc(Oc4cc(CN)cc(C(F)(F)F)n4)c3)cccc12 [Compound 1-6, N-(3-((4-(Aminomethyl)-6-(trifluoromethyl)pyridin-2-yl)oxy)phenyl)-5-(dimethylamino)naphthalene-1-sulfonamide hydrochloride]
7 | < 0.3 | NCc1cc(Oc2cccc(C(=O)NCCOCCOCCOCCNC(=O)CCCC[C@@H]3SC[C@@H]4NC(=O)N[C@@H]43)c2)nc(C(F)(F)F)c1 [Compound 1-19, 3-((4-(Aminomethyl)-6-(trifluoromethyl)pyridin-2-yl)oxy)-N-(13-oxo-17-((3aS,4S,6aR)-2-oxohexahydro-1H-thieno[3,4-d]imidazol-4-yl)-3,6,9-trioxa-12-azaheptadecyl)benzamide hydrochloride]
8 | < 0.3 | NCc1cc(Oc2cccc(C(=O)NCCNC(=O)CCCCCNC(=O)CCCCCNC(=O)CCCC[C@@H]3SC[C@@H]4NC(=O)N[C@@H]43)c2)nc(C(F)(F)F)c1 [Compound 1-20, 3-((4-(Aminomethyl)-6-(trifluoromethyl)pyridin-2-yl)oxy)-N-(2-(6-(6-(5-((3aS,4S,6aR)-2-oxohexahydro-1H-thieno[3,4-d]imidazol-4-yl)pentanamido)hexanamido)hexanamido)ethyl)benzamide hydrochloride]
9 | > 1 | CC1(C)C(/C=C/C(=C/C=C2\N(CCCS(=O)(=O)O)c3ccc4c(S(=O)(=O)O)cc(S(=O)(=O)O)cc4c3C2(C)C)c2cccc(CCCCC(=O)NCCCCCCNC(=O)c3cccc(Oc4cc(CN)cc(C(F)(F)F)n4)c3)c2)=[N+](CCCS(=O)(=O)O)c2ccc3c(S(=O)(=O)O)cc(S(=O)(=O)O)cc3c21 [Compound 1-22, 3-(2-((1E,3Z,5Z)-3-(3-(5-((6-(3-((4-(Aminomethyl)-6-(trifluoromethyl)pyridin-2-yl)oxy)benzamido)hexyl)amino)-5-oxopentyl)phenyl)-5-(1,1-dimethyl-6,8-disulfo-3-(3-sulfopropyl)-1H-benzo[e]indol-2(3H)-ylidene)penta-1,3-dien-1-yl)-1,1-dimethyl-6,8-disulfo-1H-benzo[e]indol-3-ium-3-yl)propane-1-sulfonate trifluoroacetate]

System: not listed separately
Test: Compound tissue distribution studies with 18F-PET imaging
Format: in vivo
Settings: 30-50 μCi intravenously, PET imaged 90-120 minutes, naïve or bleomycin-instilled mice
Protocol: In these studies, naïve or bleomycin-instilled mice were injected with 30-50 μCi of Compound 1-13 (^18F-labeled) intravenously and were PET imaged for 90-120 minutes following injection of the radiolabel. These animals were then sacrificed at 2.5 hours post-administration of the ^18F-labeled Compound 1-13 and tissues and blood were analyzed by scintillation counting to determine concentration of radioactivity remaining.
To determine specific binding, a subset of mice were administered a blocking dose of Compound 1-13a or vehicle (delivered at 60 mg/kg PO) at a suitable time point prior to the PET-ligand injection, such as 2.5-4 h prior.

Row | SMILES | tissue distribution of the 18F-labeled ligand
10 | NCc1cc(Oc2cccc(C(=O)N3C[C@@H](O)[C@H]([18F])C3)c2)nc(C(F)(F)F)c1 [Compound 1-13, (3-((4-(Aminomethyl)-6-(trifluoromethyl)pyridin-2-yl)oxy)phenyl)((3R,4R)-3-^18fluoro-4-hydroxypyrrolidin-1-yl)methanone hydrochloride] | Highest initial concentrations of ligand were observed in liver, kidney and lung

Target: T1, LOXL2
Test: Erenna-based fluorescence magnetic bead assay for free/unbound LOXL2
Format: binding
Settings: 34 nM Compound 1-2, 15 hours at room temperature
Protocol: Following the incubation, 10 μg of streptavidin-coated magnetic microparticles (MPs) are added to each well and incubated for 30 min-2 hours at room temperature with shaking. The MPs are washed once using magnetic separation and 20 μL of a fluorescently conjugated anti-LOXL2 antibody is added to each well (for example, R&D Systems anti-LOXL2 Goat IgG polyclonal antibody conjugated to AlexaFluor 647) and incubated for 30 min-2 hours at room temperature with shaking. The MPs are washed four times with magnetic separation and transferred to a new plate. All liquid is aspirated from the plate and elution buffer added and incubated for 10 minutes at room temperature with shaking. The eluate is transferred to a 384 well assay plate containing neutralization buffer, sealed and read on Erenna®.

Row | SMILES | signal of free/unbound LOXL2 versus LOXL2 concentration
11 | Cl.NCc1cc(Oc2cccc(C(=O)NCCOCCOCCOCCOCCOCCOCCOCCOCCOCCOCCOCCNC(=O)CCCC[C@@H]3SC[C@@H]4NC(=O)N[C@@H]43)c2)nc(C(F)(F)F)c1 [Compound 1-2, 3-((4-(Aminomethyl)-6-(trifluoromethyl)pyridin-2-yl)oxy)-N-(37-oxo-41-((3aS,4S,6aR)-2-oxohexahydro-1H-thieno[3,4-d]imidazol-4-yl)-3,6,9,12,15,18,21,24,27,30,33-undecaoxa-36-azahentetracontyl)benzamide hydrochloride] | linear increase in signal of free/unbound LOXL2 up to 500 pg/mL
